Source: patent publication US8124629B2, “Naphthylacetic acids” (Hoffmann-La Roche Inc., priority 2008, dated 2012)

Experiments:
human CRTH2 [1] = target: T1, human CRTH2 (Homo sapiens, UniProt Q9Y5Y4); experiment: Human CRTH2 Receptor Binding Assay (whole cell, [3H]ramatroban); design: expressed in transfected cells; host or cells: CHO-K1; details: CHO-K1 cells expressing human CRTH2 and G-alpha16; 20 nM [3H]ramatroban; 1 hour, room temperature
T1 sequence (Q9Y5Y4 1-395): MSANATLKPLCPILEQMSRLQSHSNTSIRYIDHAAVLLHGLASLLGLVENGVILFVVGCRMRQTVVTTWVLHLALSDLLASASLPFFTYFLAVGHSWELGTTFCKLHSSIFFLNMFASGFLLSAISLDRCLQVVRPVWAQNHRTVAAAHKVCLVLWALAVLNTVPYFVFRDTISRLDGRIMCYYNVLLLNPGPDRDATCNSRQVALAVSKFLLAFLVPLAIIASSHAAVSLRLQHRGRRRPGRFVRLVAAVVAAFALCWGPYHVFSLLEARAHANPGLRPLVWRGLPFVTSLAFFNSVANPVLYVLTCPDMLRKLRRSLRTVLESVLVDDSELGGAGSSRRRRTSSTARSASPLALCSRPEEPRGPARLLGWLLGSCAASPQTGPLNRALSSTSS
Method in brief: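 CHO-K1 cells stably co-expressing human CRTH2 and G-alpha16, 1.5×10^5 cells/reaction, bound 1 h at room temperature with 20 nM [3H]ramatroban in PBS, 10 mM MgCl2, 0.06% BSA. Filter-bound radioactivity counted; non-specific binding defined with 10 μM 15(R)-15-methyl PGD2. IC50 from 4-parameter fit of 7-concentration inhibition data.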

human CRTH2 [2] = target: T1, human CRTH2; experiment: Calcium Flux Assay Using Fluorometric Imaging Plate Reader (FLIPR); type: cell-based; design: expressed in transfected cells; host or cells: CHO-K1 (previously transfected with G-alpha 16); details: CHO-K1 cells with G-alpha 16 and human CRTH2; inhibition of ligand (DK-PGD2) induced Ca2+ flux; read-out: FLIPR assay IC50 (exceptions, greater than 3)
Method: CHO-K1 cells previously transfected with G-alpha 16 were subsequently transfected with the human CRTH2 receptor and the neomycin resistance gene. Following selection in 800 μg/mL G418 (geneticin), individual clones were assayed for their receptor expression based on staining with an anti human CRTH2 IgG, followed by assaying for their response to 13,14-dihydro-15-keto Prostaglandin D2 (DK-PDG2) (ligand) in the Ca^2+Flux assay. Positive clones were then cloned by limiting dilution cloning. The transfected cells were cultured in Ham's F-12 medium supplemented with 10% fetal bovine serum, 2 mM glutamine , 100 U/mL penicillin/100 μg/mL streptomycin, 200 μg/mL hygromycin B, and 800 μg/mL G418 (geneticin). Cells were harvested with trypsin-EDTA (trypsin-ethylenediaminetetraacetic acid) and counted using ViaCount® reagent (from Guava Technologies, Inc. which contains two DNA-binding dyes that enable the reagent user to distinguish between viable and non-viable cells). The cell suspension volume was adjusted to 2.5×10^5 cells /mL with complete growth media. Aliquots of 50 μL were dispensed into BD Falcon™ 384 well black/clear microplates (from BD Biosciences, a division of Becton, Dickinson and Company) and the microplates were placed in a 37° C. CO2 incubator overnight. The following day, the microplates were used in the assay.
Loading Buffer containing dye (from the FLIPR® Calcium 3 Assay Kit from Molecular Devices, a division of MDS Analytical Technologies and MDS Inc.) was prepared by dissolving the contents of one bottle into 200 mL Hank's Balanced Salt Solution containing 20 mM HEPES (4-(2-hydroxyethyl)-1-piperazineethanesulfonic acid) and 2.5 mM probenecid. Growth media was removed from the cell plates and 25 μL of Hank's Balanced Salt Solution (HBSS) containing 20 mM HEPES, 0.05% BSA and 2.5 mM probenecid was added to each well followed by 25 μL of diluted dye using a Multidrop dispenser. The plates were then incubated for 1 hour at 37° C.
During the incubation, test compound plates were prepared by adding 90 μL of HBSS/20 mM HEPES/0.005% BSA buffer to the 2 μL of serial diluted compounds. To prepare serial diluted compounds, 20 mM stocks of compounds were dissolved in 100% DMSO. The compound dilution plate was set up as follows: well #1 received 5 μL of compound plus 10 μL of DMSO. Wells 2-10 received 10 μL of DMSO. 5 μL was mixed and transferred from well #1 into well #2. 1:3 serial dilutions were continued out 10 steps. 2 μL of diluted compound was transferred into duplicate wells of a 384 well “assay plate” and then 90 μL of buffer was added.
After incubation, both the cell and “assay plate” plates were brought to the fluorometric imaging plate reader (FLIPR®) and 20 μL of the diluted compounds were transferred to the cell plates by the FLIPR®. Plates were then incubated for 1 hour at room temperature. After the 1 hour incubation, plates were returned to the FLIPR® and 20 μL of 4.5× concentrated ligand was added to the cell plates. During the assay, fluorescence readings were taken simultaneously from all 384 wells of the cell plate every 1.5 seconds. Five readings were taken to establish a stable baseline, then 20 μL of sample was rapidly (30 μL/sec) and simultaneously added to each well of the cell plate. The fluorescence was continuously monitored before, during and after sample addition for a total elapsed time of 100 seconds. Responses (increase in peak fluorescence) in each well following agonist addition were determined. The initial fluorescence reading from each well, prior to ligand stimulation, was used as a zero baseline value for the data from that well. The responses were expressed as % inhibition of the buffer control. […]

[3] = tested on: DK-PGD2-induced IL-13 production in Th2 cells; experiment: DK-PGD2-Induced IL-13 Production Assay in Th2 Cells; type: cell-based; details: human Th2 cells; 500 nM DK-PGD2; 4 hrs at 37° C.; IL-13 by ELISA; read-out: IC50 for inhibition of IL-13 production
Method: Inhibition of 13,14-dihydro-15-keto Prostaglandin D2 (DK-PGD2)-induced IL-13 production in T helper type 2 (Th2) cells was applied to evaluate compound cellular potency.
Cultures of Th2 cells were established from blood of healthy human volunteers according to the following procedure. Peripheral blood mononuclear cells (PBMC) were first isolated from 50 mL of fresh blood by Ficoll-Hypaque density gradient centrifugation, followed by CD4^+cell purification using a CD4^+T Cell Isolation Kit II (from Miltenyi Biotec Inc.). The CD4^+T cells were then differentiated to Th2 cells by culturing the cells in X-VIVO 15® medium (from Cambrex BioScience Walkersville Inc.) containing 10% human AB serum (serum of blood type AB from Invitrogen Corporation), 50 U/mL of recombinant human interleukin-2 (rhIL-2) (from PeproTech Inc.) and 100 ng/mL of recombinant human interleukin-4 (rhIL-4) (from PeproTech Inc.) for 7 days. The Th2 cells were isolated using a CD294 (CRTH2) MicroBead Kit (from Miltenyi Biotec Inc.) and amplified in X-VIVO 15® medium containing 10% human AB serum and 50 U/mL of rhIL-2 for 2 to 5 weeks. In general, 70% to 80% of the Th2 cells used in the assay are CRTH2-positive when analyzed by fluorescence-activated cell sorting using the BM16 antibody (as previously described) conjugated to phycoerythrin (PE).
The spontaneous production of IL-13 by Th2 cells was determined in the absence of DK-PGD2 stimulation and the value was subtracted from that in the presence of each compound for percent inhibition and IC50 calculations.
The percent inhibition of interleukin 13 (IL-13) production for a compound at various concentrations was calculated according to the following formula, [1-(IL-13 production in the presence of compound)/(IL-13 production in the presence of 0.15% DMSO)]×100. […]

IC50 (human CRTH2 [1]) [µM]	IC50 (human CRTH2 [2]) [µM]	IC50 [3] [µM]	melting point [°C]	Compound
0.264	> 3	–	–	CS(=O)(=O)c1ccc(C(=O)c2cc(CC(=O)O)cc3cc4c(cc23)OCO4)cc1 [Example 2-7, [8-(4-Methanesulfonyl-benzoyl)-naphtho[2,3-d][1,3]dioxol-6-yl]-acetic acid]
0.199	> 3	–	–	COc1ccc2c(C(=O)c3ccc(S(C)(=O)=O)cc3)cc(CC(=O)O)cc2c1 [Example 2-9, [4-(4-Methanesulfonyl-benzoyl)-7-methoxy-naphthalen-2-yl]-acetic acid]
0.0402	> 3	–	–	NS(=O)(=O)c1ccc(C(=O)c2cc(CC(=O)O)cc3ccc(F)cc23)cc1 [Example 1-2, [6-Fluoro-4-(4-sulfamoyl-benzoyl)-naphthalen-2-yl]-acetic acid]
0.0075	–	3	–	CS(=O)(=O)c1ccc(C(=O)c2cc(CC(=O)O)cc3ccc(C(F)(F)F)cc23)cc1 [Example 2-29, [4-(4-Methanesulfonyl-benzoyl)-6-trifluoromethyl-naphthalen-2-yl]-acetic acid]
0.163	–	> 10	–	CS(=O)(=O)c1ccc(Cc2cc(CC(=O)O)cc3cc(C(F)(F)F)ccc23)cc1 [Example 8-3, [4-(4-Methanesulfonyl-benzyl)-7-trifluoromethyl-naphthalen-2-yl]-acetic acid]

Continued, compound first:

Compound	IC50 (human CRTH2 [1]) [µM]	IC50 (human CRTH2 [2]) [µM]	IC50 [3] [µM]	melting point [°C]
CC(C(=O)O)c1cc(C(=O)c2ccc(S(C)(=O)=O)cc2)c2cc(F)ccc2c1 (stereo not shown) [Example 7-1, 2-[6-Fluoro-4-(4-methanesulfonyl-benzoyl)-naphthalen-2-yl]-propionic acid]	0.0533	> 3	–	–
Cc1ccc2cc(CC(=O)O)cc(C(O)c3ccc(S(C)(=O)=O)cc3)c2c1 (stereo not shown) [Example 16-2, {4-[Hydroxy-(4-methanesulfonyl-phenyl)-methyl]-6-methyl-naphthalen-2-yl}-acetic acid]	0.386	–	5.75	–
CS(=O)(=O)c1cccc(C(=O)c2cc(CC(=O)O)cc3ccc(Cl)cc23)c1 [Example 2-30, [6-Chloro-4-(3-methanesulfonyl-benzoyl)-naphthalen-2-yl]-acetic acid]	0.0825	> 3	–	–
CS(=O)(=O)c1cccc(C(=O)c2cc(CC(=O)O)cc3ccccc23)c1 [Example 2-11, [4-(3-Methanesulfonyl-benzoyl)-naphthalen-2-yl]-acetic acid]	0.135	> 3	–	–
CS(=O)(=O)c1cccc(C(=O)c2cc(CC(=O)O)cc3cc4c(cc23)OCO4)c1 [Example 2-12, [8-(3-Methanesulfonyl-benzoyl)-naphtho[2,3-d][1,3]dioxol-6-yl]-acetic acid]	0.152	> 3	–	–
Cc1c(CC(=O)O)cc2ccc(F)cc2c1Cc1ccc(S(=O)(=O)C(F)(F)F)cc1 [Example 11-1, [6-Fluoro-3-methyl-4-(4-trifluoromethanesulfonyl-benzyl)-naphthalen-2-yl]-acetic acid]	0.003	–	–	200 to 201
